{"source": "patent US9708628B2", "about": "“Cationic lipid having improved intracellular kinetics” (NOF CORPORATION, priority 2011, dated 2017)", "key": {"HT1080 cells": {"tested_on": "HT1080 cells", "test": "Endosomal escape efficiency (rhodamine-pDNA, Lysotracker Green, 6 hr)", "assay_type": "cell-based", "details": "6 hr after transfection", "experimental": "For MEND preparation, the Rhodamine-labeled pDNA prepared by the method of [Experimental Example 1] (4) was used. When MEND encapsulating rhodamine-labeled pDNA was prepared, 50% of the pDNA solution described in [Experimental Example 1] (1) was replaced by rhodamine-labeled pDNA.\nMENDs having a composition of B-2-4 (Example 4):DOPE:Chol=3:3:4, B-2 (Example 1):SOPE:Chol=5:3:2 were prepared by the method described in [Experimental Example 1] (2). For the preparation, PEG2000-DMG was used as PEG lipid, and MEND solutions corresponding to 0.55 mM of the lipid concentration were prepared.\nHT1080 cells were plated on a glass bottom dish at 5×10^4 cells/2 mL/dish 24 hr before. MEND was diluted with DMEM (FBS 10%+) to achieve pDNA 1.6 μg/2 mL and transfected into cells. After 5.5 hr, Lysotracker Green (Life technologies) was added at 2 μL/dish. 6 hr after the transfection, the cells were washed twice with heparin (20 units/mL, 2 mL), Krebs buffer (1 mL) was added, and the cells were observed by a confocal laser scan microscope.\nRhodamine-labeled pDNA, endosome/lysosome and nucleus were shown in pseudo colors of red, green and blue, respectively. The endosomal escape efficiency was calculated according to the following formula."}, "[1]": {"test": "Particle size and surface potential of siRNA MENDs prepared by t-BuOH injecting method", "assay_type": "physicochemical", "details": "siRNA MEND, cationic lipid/cholesterol=70/30, DMG-PEG2000 3%", "experimental": "A lipid solution in t-BuOH with a composition of cationic lipid/cholesterol=70/30, DMG-PEG2000 3% and a total lipid amount of 3000 nmol/400 μL (7.5 mM) was prepared in a 1.7 mL tube. In a separate 1.7 mL tube, an siRNA solution was prepared by mixing an siRNA aqueous solution containing siRNA (160 μg) and 20 mM malate buffer (pH 4.00, 30 mM NaCl) to total 50 μL. With vigorous stirring of the lipid solution, the siRNA solution was gradually added dropwise, and the mixed solution was taken in a 1 mL syringe. Then, 20 mM malate buffer (pH 4.00, 30 mM NaCl, 2 mL) was added into a 5 mL tube, and the mixed solution was gradually injected with vigorous stirring. Thereafter, the mixture was further diluted with PBS (7 mL) and centrifuged at 1000 g, 30° C. for 10 min in Amicon Ultra-15-100K to a volume of less than 1.5 mL. PBS (15 mL) was added, and the solution was centrifuged again to about 500-1000 μL. Finally, the MEND solution was adjusted by diluting with PBS to the object lipid concentration.\nThe particle size and surface potential of various MENDs were measured according to the method described in [Experimental Example 2] and the results are shown in Table 6."}, "TNF-α": {"tested_on": "TNF-α", "test": "Cytokine production by MEND administration, TNF-α (ELISA)", "assay_type": "in vivo, ICR mice", "details": "pCpGfree-Luc(0), 40 μg DNA", "experimental": "(§1) MENDs used in [Experimental Example 12] were each administered to 5-week-old male ICR mice from the tail vein in an amount corresponding to 40 μg DNA. 1, 3, 6, 24 hr later, the blood was collected from the heart, and TNF-α, IFN-γ, IL-12p70 were measured using Quantikine ELISA kit (R&D Systems)."}, "IL-12p70": {"tested_on": "IL-12p70", "test": "Cytokine production by MEND administration, IL-12p70 (ELISA)", "assay_type": "in vivo, ICR mice", "details": "pCpGfree-Luc(0), 40 μg DNA", "experimental": "as §1"}, "liver [2]": {"tested_on": "liver", "test": "Time course of gene expression activity in the liver (IVIS imaging, total luminescence in abdomen)", "assay_type": "in vivo, ICR mice", "details": "for luminescence / gene expression time course: 40 μg DNA, tail vein", "excerpt": "As a DNA to be mounted on MEND composed of B-2 in this case, […]-Luc(0) described in WO 2011/132713 was used as pDNA completely excluding CpG sequence known to induce immune response and, as a general pDNA having a CpG sequence, a plasmid DNA (pcDNA3.1-Luc(+); CpG sequence total 425) containing a CpG sequence in the back bone of the plasmid DNA and having a CpG sequence even between the initiation codon and the stop codon of the luciferase sequence (marker gene) was used. In gene transfer using cationic MEND and in vivo […]-Luc(0) alone was used. 6, 24, 72 hr later, luciferin (in vivo grade, Promega) corresponding to 3 mg was intraperitoneally administered to the mice, and imaging was performed using IVIS LuminaII (Caliper Life Sciences). As for MEND composed of B-2, imaging was performed about twice a week even after 72 hr. The total luminescence amount in the mouse abdomen was calculated as photon/sec from the obtained images, and used as an index of gene expression activity in the liver."}, "liver [3]": {"tested_on": "liver", "test": "Intrahepatic behavior of MEND (intravital confocal microscopy)", "assay_type": "in vivo, ICR mice", "details": "Rhodamine-DOPE labeled MEND, 40 μg DNA/mouse, about 10 min filming", "experimental": "Rhodamine-DOPE was added to R8/GALA-MEND in an amount of 0.1% of the total lipid concentration, and to B-2 MEND in an amount of 1% of the total lipid concentration. 50 mg/mL Sodium pentobarbital (Nacalai Tesque) was diluted 5-fold with saline and intraperitoneally administered to ICR mice (5-week-old male) for anesthesia. Griffonia simplicifolia Lectin I-B4 Isolectin, FITC Conjugate (VECTOR Laboratories, about 80 μL) was administered to the mice under anesthesia from the tail vein to stain the vascular endothelial cells. […] A winged intravenous indwelling needle connected with an extension tube filled with the MEND solution was indwelled in the tail vein of the mouse. To prevent dislocation of the observation site due to the heart beat of the mouse, a device for fixing the liver by adsorption (Shimizu K et al., J Biosci Bioeng. 112(5): 508-10) was used, and the mouse was observed using a confocal microscope (Nikon A1) with a 60-fold water immersion lens."}, "IFN-γ": {"tested_on": "IFN-γ", "test": "Cytokine production by MEND administration, IFN-γ (ELISA)", "assay_type": "in vivo, ICR mice", "details": "pCpGfree-Luc(0), 40 μg DNA", "experimental": "as §1"}}, "data": [{"smiles": "CC1=C(/C=C/C(C)=C/C=C/C(C)=C/C(=O)OCCCN(C)CCSSCCN(C)CCCOC(=O)/C=C(C)/C=C/C=C(C)/C=C/C2=C(C)CCCC2(C)C)C(C)(C)CCC1", "note": "[Example B-2-4]", "values": [{"measurement": "endosomal escape efficiency", "setting": "HT1080 cells", "value": "significantly higher endosomal escape efficiency than B-2"}]}, {"smiles": "Cc1c(C)c2c(c(C)c1OC(=O)CCC(=O)OCCCN(C)CCSSCCN(C)CCCOC(=O)CCC(=O)Oc1c(C)c(C)c3c(c1C)CCC(C)(CCCC(C)CCCC(C)CCCC(C)C)O3)CCC(C)(CCCC(C)CCCC(C)CCCC(C)C)O2", "note": "(centres unmarked) [Example B-2-5]", "values": [{"measurement": "PDI", "setting": "[1]", "value": 0.076}, {"measurement": "size (nm)", "setting": "[1]", "value": 110, "unit": "nm"}, {"measurement": "zeta (mV)", "setting": "[1]", "value": "−9.5", "unit": "mV"}]}, {"smiles": "CCCCCCCCCCCCCC(=O)OCCCN(C)CCSSCCN(C)CCCOC(=O)CCCCCCCCCCCCC", "note": "[Example B-2]", "values": [{"measurement": "TNF-α blood concentration", "setting": "TNF-α", "value": "maintained the normal value at any time point"}, {"measurement": "IL-12p70 blood concentration", "setting": "IL-12p70", "value": "maintained the normal value at any time point"}, {"measurement": "time at which luminescence completely disappeared", "setting": "liver [2]; pCpGfree-Luc(0)", "value": 18, "unit": "days"}, {"measurement": "luminescence / gene expression time course", "setting": "liver [2]; pCpGfree-Luc(0)", "value": "luminescence amount increased from 6 hr to 24 hr later, after which the luminescence amount was retained for the subsequent one week"}, {"measurement": "luminescence / gene expression time course", "setting": "liver [2]; pcDNA3.1-Luc(+)", "value": "weak luminescence 6 hr later, after which the gene expression decreased"}, {"measurement": "behavior in liver blood vessels", "setting": "liver [3]", "value": "coagulation was not formed and the MEND uniformly flows through the blood vessels"}, {"measurement": "IFN-γ blood concentration", "setting": "IFN-γ", "value": "maintained the normal value at any time point"}]}]}
